This note sets out measurements from ChEMBL document CHEMBL1201862, “PubChem BioAssay data set” (2004).

Experiment in all cases: NCI anticancer screen, dose series, 48 h
Assay [1] has as its system HOP-92.
Assay [2] has as its system Hs-578T.
For assay [3], the system named is HCT-116.
The subject of assay [4] is U-251.
The subject of assay [5] is COLO 205.
Assay [6] has as its system A549.
Assay [7] relates to SF-295.
Assay [8] concerns SNB-19.
In assay [9] the test system is MDA-N.
The subject of assay [10] is SK-MEL-28.
For assay [11], the system named is CCRF-CEM.
Assay [12] concerns 786-0.
Assay [13] has as its system CAKI-1.
Assay [14] deals with EKVX.
The test system of assay [15] is BT-549.
Assay [16] relates to A498.
Assay [17] relates to PC-3.
For assay [18], the system named is SNB-75.
Assay [19] has as its system SR.
Assay [20] concerns OVCAR-3.

The structures appear in SMILES notation.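 Growth conditions: 96-well plates. Treatment: test compound, 48 hours, 5 concentrations. Analysis: linear interpolation between bracketing concentrations; unreached endpoints set to highest concentration. Here, GI50 denotes the concentration required for 50% inhibition of growth.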 Activity calls are given as the source filed them. Cut-off read from the data, not from the text of the source: active = GI50 up to about 1.1 µM and inactive = higher. Some results are limits rather than exact numbers.

As to `C=C(Cl)C(C)(Cl)CCC(Cl)C(C)C` (stereo not given), the GI50 is 87.1 µM (inactive) in [1]; > 100 µM (inactive) in assay [2]; > 100 µM (inactive) in [3]; > 100 µM (inactive) in assay [4]; > 100 µM (inactive) in assay [5]; > 100 µM (inactive) in assay [6]. The GI50 was > 100 µM (inactive) in [7]; > 100 µM (inactive) in assay [8]; 43.2 µM (inactive) in [9]; > 100 µM (inactive) in assay [10]; 38.7 µM (inactive) in assay [11]; > 100 µM (inactive) in [12]. Also, the GI50 in [13] is > 100 µM (inactive); in assay [14], > 100 µM (inactive); in assay [15] it was > 100 µM (inactive); in assay [16], > 100 µM (inactive); in [17], > 100 µM (inactive); in assay [18], 24.6 µM (inactive). The GI50 is 24.8 µM (inactive) in [19] and > 100 µM (inactive) in assay [20].

Consider `CCOC(=O)c1c(Br)c(-c2ccc(Br)cc2)c(Br)n1C`, for which the GI50 in assay [1] is 7.31 µM (inactive); in [2] it was 34.3 µM (inactive); in [3], 6.32 µM (inactive); in [4], 18 µM (inactive); in [5], 14.9 µM (inactive); in [6], 23.6 µM (inactive). Besides, the GI50 is 17.9 µM (inactive) in assay [7]; 28.3 µM (inactive) in [8]; 3.4 µM (inactive) in assay [9]; 15.3 µM (inactive) in [10]; 14.7 µM (inactive) in assay [11]; 20.5 µM (inactive) in assay [12]. Further, the GI50 in assay [13] is 17.1 µM (inactive); in [14], 8.99 µM (inactive); in assay [15], 14.5 µM (inactive); in assay [16] it was 18.2 µM (inactive); in [17], 19.4 µM (inactive); in assay [18] it was 3.18 µM (inactive). For the same compound, the GI50 in [19] was 3.22 µM (inactive); in [20], 14.7 µM (inactive).

For the compound `COCC(=O)OC1CCn2c1nc1c2C(=O)C(C)=C(NC(C)=O)C1=O` (stereo not given), the GI50 in assay [1] is 1.98 µM (inactive); in assay [2], 4.06 µM (inactive); in assay [3], 3.05 µM (inactive); in assay [4], 6.05 µM (inactive); in assay [5] it was 15.5 µM (inactive); in [6], 21.6 µM (inactive). Also, the GI50 was 16.3 µM (inactive) in assay [7]; 19.6 µM (inactive) in [8]; 1.85 µM (inactive) in [9]; 15.1 µM (inactive) in [10]; 0.857 µM (active) in assay [11]; 6.73 µM (inactive) in [12]. Also, the GI50 in assay [13] was 16.2 µM (inactive); in assay [14] it was 7.6 µM (inactive); in [15] it was 11.7 µM (inactive); in assay [16], 27.9 µM (inactive); in [17], 2.27 µM (inactive); in [18], 5.42 µM (inactive). Further, the GI50 is 1.94 µM (inactive) in [19] and 1.66 µM (inactive) in assay [20].

Turning to `CC(C)C(OC(=O)c1cc(NC(=S)c2ccccc2)ccc1Cl)C(C)C`, the GI50 is 8.39 µM (inactive) in assay [1]; 21.1 µM (inactive) in assay [2]; 12.3 µM (inactive) in assay [3]; 19.1 µM (inactive) in [4]; 16.1 µM (inactive) in [5]; 21 µM (inactive) in assay [6]. Besides, the GI50 in [7] is 4.53 µM (inactive); in assay [8], 38.4 µM (inactive); in assay [9], 16.6 µM (inactive); in assay [10], 21.8 µM (inactive); in assay [11] it was 14.9 µM (inactive); in assay [12], 16.7 µM (inactive). Also, the GI50 in assay [13] is 17.2 µM (inactive); in assay [14] it was 12.9 µM (inactive); in assay [15], 20.8 µM (inactive); in assay [16] it was 21.1 µM (inactive); in assay [17] it was 8.53 µM (inactive); in assay [18], 19.4 µM (inactive). Besides, the GI50 in assay [19] is 11.9 µM (inactive); in assay [20], 16.4 µM (inactive).

As for `N#CCCN(CCC#N)c1ccc(C(=N/c2ccc(F)cc2)/N=N/c2ccccc2)cc1`, the GI50 in [1] is > 100 µM (inactive); in assay [2], > 100 µM (inactive); in assay [3] it was > 100 µM (inactive); in assay [4] it was 50.9 µM (inactive); in [5] it was > 100 µM (inactive); in assay [6] it was 37.8 µM (inactive). Moreover, the GI50 in assay [7] is 32.8 µM (inactive); in assay [8] it was > 100 µM (inactive); in assay [9], > 100 µM (inactive); in assay [10], > 100 µM (inactive); in [11], < 0.01 µM (active); in assay [12] it was > 100 µM (inactive). Further, the GI50 is > 100 µM (inactive) in assay [13]; > 100 µM (inactive) in assay [14]; 34 µM (inactive) in [15]; > 100 µM (inactive) in assay [16]; > 100 µM (inactive) in assay [17]; 57.5 µM (inactive) in assay [18]. The values for the GI50 in assay [19] and in assay [20] were 33 µM (inactive) and 95.3 µM (inactive), respectively.

Take `CCOC1NC(=O)Oc2ccccc21` (stereo not given): the GI50 in assay [1], in assay [2], in assay [3], in assay [4], in assay [5] and in assay [6] was > 100 µM (inactive) in each case. Further, the GI50 in assay [7], in assay [8], in assay [9], in assay [10], in assay [11] and in [12] was > 100 µM (inactive) each time. Further, the GI50 in assay [13], in [14], in assay [15], in assay [16], in assay [17] and in assay [18] was > 100 µM (inactive) throughout. Further, the GI50 in assay [19] was > 100 µM (inactive); in assay [20] it was 68.2 µM (inactive).

For the compound `O=C1Nc2ccccc2/C1=N/NC(=O)C(O)(c1ccccc1)c1ccccc1`, the GI50 is 18.9 µM (inactive) in [1]; 25.6 µM (inactive) in [2]; 22.9 µM (inactive) in assay [3]; 18.2 µM (inactive) in [4]; 18 µM (inactive) in [5]; 17.1 µM (inactive) in assay [6]. The GI50 in [7] was 18.8 µM (inactive); in assay [8], 16.7 µM (inactive); in assay [9] it was 16.9 µM (inactive); in [10] it was 17.7 µM (inactive); in [11] it was 26.1 µM (inactive); in assay [12], 35.4 µM (inactive). The GI50 in assay [13] was 31.7 µM (inactive); in [14] it was 30.5 µM (inactive); in [15], 14.1 µM (inactive); in assay [16], 18.3 µM (inactive); in [17], 16.6 µM (inactive); in assay [18] it was 21.1 µM (inactive). Besides, the GI50 in assay [19] is 21.2 µM (inactive); in assay [20] it was 20 µM (inactive).

As to `C/C(=N\NC(N)=O)C(CN(C)C)C(c1ccccc1)c1c(O)c2ccccc2oc1=O` (stereo not given), the GI50 in [1] was 0.296 µM (active); in [2] it was > 100 µM (inactive); in assay [3] it was > 100 µM (inactive); in assay [4], > 100 µM (inactive); in assay [5], 36.4 µM (inactive); in assay [6], > 100 µM (inactive). Moreover, the GI50 is > 100 µM (inactive) in [7]; > 100 µM (inactive) in assay [8]; > 100 µM (inactive) in assay [9]; > 100 µM (inactive) in assay [10]; 90.8 µM (inactive) in assay [11]; > 100 µM (inactive) in assay [12]. Moreover, the GI50 in assay [13], in assay [14], in [15], in [16], in assay [17] and in assay [18] was > 100 µM (inactive) in each case. Besides, the GI50 in [19] and in [20] was > 100 µM (inactive) throughout.

Consider `COc1ncc(C#CC(=O)c2ccccc2OC)c(OC)n1`, for which the GI50 in [1] was 2.32 µM (inactive); in assay [2], 9.98 µM (inactive); in assay [3], 4.98 µM (inactive); in assay [4], 3.89 µM (inactive); in assay [5], 2 µM (inactive); in [6], 5.98 µM (inactive). The GI50 was 16.9 µM (inactive) in assay [7]; 15 µM (inactive) in assay [8]; 1.64 µM (inactive) in assay [9]; 2.86 µM (inactive) in assay [10]; 0.0995 µM (active) in assay [11]; 1.86 µM (inactive) in assay [12]. The GI50 in [13] was 1.77 µM (inactive); in [14], 3.25 µM (inactive); in assay [15] it was 1.93 µM (inactive); in [16] it was 18.4 µM (inactive); in assay [17] it was 1.86 µM (inactive); in assay [18] it was 4.03 µM (inactive). For the same compound, the values for the GI50 in assay [19] and in assay [20] were 0.202 µM (active) and 3.15 µM (inactive), respectively.

With `COc1ccc2c(c1)-c1nc(=S)n(CCN(C)C)c3ccc([N+](=O)[O-])c(c13)N2`, the GI50 in assay [1] was 6.61 µM (inactive); in [2] it was 1.37 µM (inactive); in [3], 0.247 µM (active); in assay [4], 1.08 µM (active); in assay [5], 0.865 µM (active); in [6], 0.515 µM (active). Moreover, the GI50 in [7] is 0.794 µM (active); in [8] it was 0.828 µM (active); in assay [9], 0.948 µM (active); in [10], 1.44 µM (inactive); in assay [11], 1.09 µM (active); in [12] it was 0.462 µM (active). Further, the GI50 in assay [13] is 1.49 µM (inactive); in assay [14], 1.97 µM (inactive); in assay [15], 10.3 µM (inactive); in assay [16], 8.13 µM (inactive); in [17], 1.06 µM (active); in assay [18], 1.3 µM (inactive). The GI50 is 0.419 µM (active) in [19] and 1.23 µM (inactive) in assay [20].
